Laboratory results taken from PubChem BioAssay (NCI).
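1) Cells in 96-well plates. 2) Compound, 48 h, 5 concentrations. 3) Linear interpolation between surrounding doses. 4) Unreached endpoint = highest concentration. TGI is the concentration that stops growth completely.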

Assays:
Test in all cases: inhibition of tumour cell growth, NCI panel, 48 h
[1] = test system: 786-0 renal
[2] = test system: A498 renal
[3] = test system: A549 NSCLC
[4] = test system: ACHN renal
[5] = test system: BT-549 breast
[6] = test system: CAKI-1 renal
[7] = test system: CCRF-CEM leukemia
[8] = test system: COLO 205 colon
[9] = test system: DU-145 prostate
[10] = test system: EKVX NSCLC
[11] = test system: HCC-2998 colon
[12] = test system: HCT-116 colon
[13] = test system: HCT-15 colon
[14] = test system: HL-60(TB) leukemia
[15] = test system: HOP-62 NSCLC
[16] = test system: HOP-92 NSCLC
[17] = test system: HS 578T breast
[18] = test system: HT29 colon
[19] = test system: IGROV1 ovarian
[20] = test system: K-562 leukemia
[21] = test system: KM12 colon
[22] = test system: LOX IMVI melanoma
[23] = test system: M14 melanoma
[24] = test system: MALME-3M melanoma
[25] = test system: MCF7 breast
[26] = test system: MDA-MB-231 breast
[27] = test system: MDA-MB-435
[28] = test system: MDA-N
[29] = test system: MOLT-4 leukemia
[30] = test system: NCI-H226 lung
[31] = test system: NCI-H23 lung
[32] = test system: NCI-H460 lung
[33] = test system: NCI-H522 lung
[34] = test system: NCI/ADR-RES ovarian
[35] = test system: OVCAR-3 ovarian
[36] = test system: OVCAR-4 ovarian
[37] = test system: OVCAR-5 ovarian
[38] = test system: OVCAR-8 ovarian
[39] = test system: PC-3 prostate
[40] = test system: RPMI-8226 leukemia
[41] = test system: RXF 393 renal
[42] = test system: SF-268 CNS
[43] = test system: SF-295 CNS
[44] = test system: SK-MEL-2 melanoma
[45] = test system: SK-MEL-28 melanoma
[46] = test system: SK-MEL-5 melanoma
[47] = test system: SK-OV-3 ovarian
[48] = test system: SN12C renal
[49] = test system: SNB-19 CNS
[50] = test system: SNB-75 CNS
[51] = test system: SW-620 colon
[52] = test system: T-47D breast
[53] = test system: TK-10 renal
[54] = test system: U251 CNS
[55] = test system: UACC-257 melanoma
[56] = test system: UACC-62 melanoma
[57] = test system: UO-31 renal
[58] = test system: SF-539 CNS

Compound: CC(C)[C@H](NC(=O)[C@H](N)Cc1ccc(N(CCCl)CCCl)cc1)C(=O)O
- TGI [1]: > 100 µM
- TGI [2]: > 100 µM
- TGI [3]: > 100 µM
- TGI [4]: > 100 µM
- TGI [5]: > 100 µM
- TGI [6]: > 100 µM
- TGI [7]: > 100 µM
- TGI [8]: > 100 µM
- TGI [9]: > 100 µM
- TGI [10]: > 100 µM
- TGI [11]: > 100 µM
- TGI [12]: > 100 µM
- TGI [13]: > 100 µM
- TGI [14]: > 100 µM
- TGI [15]: > 100 µM
- TGI [16]: > 100 µM
- TGI [17]: > 100 µM
- TGI [18]: > 100 µM
- TGI [19]: > 100 µM
- TGI [20]: > 100 µM
- TGI [21]: > 100 µM
- TGI [22]: > 100 µM
- TGI [23]: > 100 µM
- TGI [24]: > 100 µM
- TGI [25]: > 100 µM
- TGI [26]: > 100 µM
- TGI [27]: > 100 µM
- TGI [28]: > 100 µM
- TGI [29]: > 100 µM
- TGI [30]: > 100 µM
- TGI [31]: > 100 µM
- TGI [32]: > 100 µM
- TGI [33]: > 100 µM
- TGI [34]: > 100 µM
- TGI [35]: > 100 µM
- TGI [36]: > 100 µM
- TGI [37]: > 100 µM
- TGI [38]: > 100 µM
- TGI [39]: > 100 µM
- TGI [40]: > 100 µM
- TGI [41]: > 100 µM
- TGI [42]: > 100 µM
- TGI [43]: > 100 µM
- TGI [44]: > 100 µM
- TGI [45]: > 100 µM
- TGI [46]: > 100 µM
- TGI [47]: > 100 µM
- TGI [48]: > 100 µM
- TGI [49]: > 100 µM
- TGI [50]: > 100 µM
- TGI [51]: > 100 µM
- TGI [52]: > 100 µM
- TGI [53]: > 100 µM
- TGI [54]: > 100 µM
- TGI [55]: > 100 µM
- TGI [56]: > 100 µM
- TGI [57]: > 100 µM

Compound: COC(O)C(=O)c1ccc2c(c1)CC1(C2)Cc2cc3c(cc2C1=O)CCC3 (stereo unspecified)
- TGI [1]: 31.4 µM
- TGI [2]: 37.1 µM
- TGI [3]: 47.4 µM
- TGI [4]: 30.6 µM
- TGI [5]: 31.8 µM
- TGI [6]: 31.2 µM
- TGI [7]: 48 µM
- TGI [8]: 47.2 µM
- TGI [9]: 31.1 µM
- TGI [10]: 45.7 µM
- TGI [11]: 38.6 µM
- TGI [12]: 34.8 µM
- TGI [13]: 58 µM
- TGI [15]: 38.8 µM
- TGI [17]: 60.7 µM
- TGI [18]: 42.3 µM
- TGI [19]: 32.8 µM
- TGI [20]: 21.8 µM
- TGI [21]: 43.9 µM
- TGI [22]: 10.1 µM
- TGI [23]: 35.9 µM
- TGI [24]: 36.1 µM
- TGI [25]: 39.6 µM
- TGI [26]: 73.3 µM
- TGI [27]: 35.3 µM
- TGI [28]: 42.3 µM
- TGI [29]: 64 µM
- TGI [30]: 43.6 µM
- TGI [31]: 56.2 µM
- TGI [32]: 70.6 µM
- TGI [33]: 35.7 µM
- TGI [34]: > 100 µM
- TGI [35]: 34.5 µM
- TGI [36]: 30.4 µM
- TGI [37]: 52.3 µM
- TGI [39]: 30.8 µM
- TGI [40]: 32.7 µM
- TGI [42]: 43.3 µM
- TGI [43]: 44.1 µM
- TGI [58]: 35.4 µM
- TGI [44]: 47.1 µM
- TGI [45]: 29.6 µM
- TGI [46]: 29.4 µM
- TGI [47]: 31.9 µM
- TGI [48]: 29.6 µM
- TGI [49]: 34.5 µM
- TGI [50]: 37.5 µM
- TGI [51]: 30.3 µM
- TGI [52]: 48.1 µM
- TGI [53]: 36.2 µM
- TGI [54]: 35.5 µM
- TGI [55]: 39.7 µM
- TGI [56]: 34 µM
- TGI [57]: 30.5 µM
